{"source": "patent US20120149724A1", "about": "“MODULATING ENDOGENOUS BETA-ENDORPHIN LEVELS” (THE GENERAL HOSPITAL CORPORATION, priority 2009, published 2012)", "key": {"[1]": {"test_system": "C57BL/6 male mice", "assay": "analgesic thresholds (von Frey and hot plate assays) over a tail radiation or mock regimen", "format": "in vivo", "method": "Example 4 describes analgesic response changes in response to tail-only radiation exposure. To obtain the data shown in FIGS. 4A and 4B, 8-week old male mice were either exposed to a dose of 5 Gy/day gamma radiation or mock exposed for 6 weeks. Mechanical (FIG. 4A) and thermal (FIG. 4B) analgesic thresholds were measured twice per week over the course of the regimen, and for 2 weeks after the regimen. The threshold testing was performed in the morning before the radiation treatment or mock exposure. The mock exposed mice were either injected with saline 15 minutes before the testing, or with 10 mg/kg naloxone 15 minutes before the testing. The radiation treatment group was divided into 2 subgroups. The first group was given saline injections 15 minutes before the testing. The second group was given a 10 mg/kg naloxone injection 15 minutes before the testing. For all groups of mice, blood was drawn once per week for beta-endorphin measurement. Data for FIG. 4A was obtained from C57BL/6 male mice, and there were 10 mice per treatment group. Data for FIG. 4B was obtained from C57BL/6 male mice, and there were 10 mice per treatment group. An asterisk indicates p<0.05 by t-test. FIGS. 4A and 4B show both mechanical and thermal analgesic thresholds increase over the radiation regimen similarly to plasma beta-endorphin fluctuations (Figure C).\nIn this assay of mechanical nociceptive threshold, mice were placed on an elevated wire mesh grid, and the plantar surface of the left hind paw was poked with fibers calibrated to different pressures. Mice were each poked 10 times at each pressure at a rate of 1/second, starting with the lowest pressure and stopping at the pressure that elicits a positive response for a given mouse, thus indicating the mechanical nociceptive threshold for that mouse. A positive response was 2/10 responses of paw flinching, fluttering, or licking immediately following the poke. These experiments were performed in mice undergoing daily tail radiation or mock tail radiation as follows.\nPrior to the start of the tail radiation regimen, mice were habituated over one week by spending 1 hour/day in individual wire mesh cages on the elevated wire mesh grid. In addition, prior to each measurement, mice spent 30 minutes on the wire mesh grid to habituate before measurements were taken. Two measurements of baseline thresholds were taken on two different days prior to the start of the radiation regimen. During the radiation regimen and for 2 weeks following the end of the regimen, mice were tested twice per week on two different, non-consecutive days. Mice receiving mock treatment and 1 subgroup of mice receiving tail radiation were injected with saline (ip) 15 minutes prior to testing. […]"}, "[2]": {"test_system": "plasma β-endorphin", "assay": "plasma β-endorphin by radioimmunoassay over a tail radiation or mock regimen", "format": "in vivo, mice", "source_text": "FIG. 4C illustrates the plasma beta-endorphin fluctuations in the C57BL/6 mice as described in FIGS. 4A and 4B. To obtain the data shown in FIG. 4C, blood was drawn once per week over the 6 week regimen, and for the 2 weeks following. The blood was drawn in the morning prior to the radiation treatment for that day. FIG. 4C uses data obtained by C57BL/6 male mice, 10 mice per treatment group. Mock exposed mice remained stable throughout the regimen.\nFor all experiments, mice used were in a C57BL/6 background. In all experiments wild type mice were used, and in select experiments mice containing homozygous deletion of the p53 gene (p53−/−) were used. All mice were 8 weeks old at the beginning of each experiment. […] Blood Draws and Preparation for Radioimmunoassay Mice were placed in a standard restrainer. A 30-gauge needle was inserted into the tail vein, and 200 uL of blood was collected in EDTA microvette tubes containing 5 TIU aprotinin. Tubes were maintained on ice at all times. Tubes were spun at 3500 rpm at 4° C. for 20 minutes. Plasma was isolated for β-endorphin measurement by commercially available radioimmunoassay (Phoenix Pharmaceuticals). […]"}, "[3]": {"test_system": "Sprague-Dawley rats", "assay": "actimetry (locomotor activity) in rats over a daily tail radiation regimen", "format": "in vivo", "conditions": "2 Gy/day tail radiation for 6 weeks; 1 mg/kg ip 15 minutes before actimetry", "method": "Eight week old male Sprague-Dawley rats underwent a 6-week regimen of 2 Gy/day daily tail radiation of mock exposure. Prior to the start of the regimen, baseline activity was recorded as total distance traveled in 30 minutes in the actimetry chamber. During the regimen and for 2 weeks following the end of the regimen, actimetry measurements were made once per week, and for these measurements, half of the tail-irradiated rats and half of the mock-exposed rats were injected with naloxone (1 mg/kg, ip) 15 minutes prior to actimetry testing, and the other half of tail-irradiated and mock-exposed animals were injected with saline (ip) 15 minutes prior to actimetry testing. In addition, blood was drawn prior to, once weekly during, and once weekly for 2 weeks following the end of the regimen for β-endorphin measurement. […] Top graphs show results for tail-irradiated rats, bottom graphs show results for mock-exposed controls. Left side graphs show results for rats injected with saline prior to actimetry testing, right side graphs show results for rats injected with naloxone prior to actimetry testing. […] Error bars indicate +/−SEM, and (*) indicates p<0.05 by two-tailed Student's t-test with respect to baseline values for that group."}}, "note": "Entries after “also recorded” stand apart in the source; their conditions may differ."}
{"compound": "C=CCN1CC[C@]23c4c5ccc(O)c4O[C@H]2C(=O)CC[C@@]3(O)[C@H]1C5", "note": "[naloxone]", "values": [{"measurement": "sensitivity to mechanical and thermal stimuli", "setting": "[1]; mock-exposed mice, 10 mg/kg, compared to mock-exposed, saline-treated mice", "value": "increased sensitivity to mechanical and thermal stimuli"}, {"measurement": "effect on radiation-induced changes in mechanical and thermal analgesic thresholds", "setting": "[1]; tail-irradiated mice 5 Gy/day for 6 weeks, 10 mg/kg 15 minutes before testing, 10 mg/kg", "value": "prevented; also recorded: prevents changes in analgesic thresholds"}, {"measurement": "sensitivity to mechanical and thermal stimuli", "setting": "[1]; tail-irradiated mice, 10 mg/kg 15 minutes before testing, as the radiation regimen progressed", "value": "increased sensitivity to both mechanical and thermal stimuli"}, {"measurement": "other withdrawal phenotypes (jumping, wet-dog shaking, teeth chattering, diarrhea)", "setting": "[1]; tail-irradiated mice, upon naloxone injection, 10 mg/kg", "value": "not observed acutely"}, {"measurement": "change in plasma beta-endorphin levels", "setting": "[2]; mock-exposed mice, 10 mg/kg", "value": "no increase in plasma beta-endorphin levels"}, {"measurement": "change in plasma β-endorphin", "setting": "[2]; tail-irradiated mice, 10 mg/kg before behavioral testing, over the radiation regimen", "value": "most dramatic increase in plasma β-endorphin; also recorded: elevations in systemic beta-endorphin over and above the elevation caused by tail radiation alone"}, {"measurement": "effect on radiation-induced lethargy (total distance traveled in 30 minutes)", "setting": "[3]", "value": "Naloxone-Reversible Lethargy"}]}
